Results from US10905691B2, “Use of triazolo(4,5-d)pyrimidine derivatives for prevention and treatment of bacterial infection” (Universite de Liege, priority 2016, dated 2021).
In brackets after ≈: the same amount, converted by molar mass.

How the values were obtained:
S. aureus ATCC 6538 = assay: MIC determination (EUCAST, Mueller-Hinton broth); type: cell-based; details: Staphylococcus aureus, ATCC6538
Experimental: Further experiments were conducted using different strains of S. aureus, as clinically relevant Gram-positive bacterial strains: ATCC 25904, ATCC 6538, methilcillin-resistant S. aureus (MRSA) ATCC BAA-1556, Glycopeptide intermediate-resistant (GISA) S. aureus Mu-50 (ATCC 700695) in order to determine the Minimal Inhibitory Concentration (MIC) which is the minimal concentration required to prevent bacterial growth; the Minimal Bactericidal Concentration (MBC) which determines the lowest concentration at which an antimicrobial agent kill a particular microorganism and a Minimum Duration for killing 99.9% bacteria (MDK99.9) which is a tolerance metric according to the EUCAST.
MIC determination: A single colony selected from the different strains of S. aureus is resuspended and cultured in the appropriate medium overnight (O/N) in aerobic conditions (37° C. with 220 rpm shaking), next day a 1:100 inoculum in Mueller-Hinton broth (MHB) was incubated in aerobic conditions for 3 hr (OD=0.08-0.1) and an inoculum of 1:300 dilution, corresponding to 3×10^5 CFU/ml, was incubated in presence or absence of different concentrations of Triafluocyl in 1% DMSO. After O/N growth the OD of each culture was measured at 600 nm in a spectrophotometer (OD600). […]

S. aureus (ATCC 25904) = assay: Growth kinetics in logarithmic phase (OD600 and viable count); type: cell-based, Staphylococcus aureus; details: 20-100 min, FIG. 1
Experimental: S. aureus (American Type Culture Collection, ATCC 25904) was grown overnight in Tryptic Soy Broth (TSB) medium, diluted 1:100 in fresh TSB, and incubated aerobically at 37° C. until bacteria growth reached a logarithmic phase (OD600=0.25-0.3).
Increasing concentrations of Triafluocyl (Cayman Chemical, Item No. 15425) or vehicle (DMSO) was then added in 5 ml of bacteria suspensions. Bacterial growth was measured after different time intervals (20-100 min) by spectrophotometry (OD600) and by counting the colony-forming units after plating appropriate culture dilutions on TS agar plates.
In FIG. 1 kinetics of S. aureus growth in the presence of an increasing concentrations (1 μg/ml to 20 μg/ml) of Triafluocyl were measured by turbidity measurement (upper graph), and viable count (lower graph). Data represent medians±range (n=3). *p<0.05; **p<0.01, ***p<0.001, Triafluocyl vs vehicle.

MIC (S. aureus ATCC 6538): 20 mg/L (≈ 38.3 µM)
SMILES: CCCSc1nc(N[C@@H]2C[C@H]2c2ccc(F)c(F)c2)c2nnn([C@@H]3C[C@H](OCCO)[C@@H](O)[C@H]3O)c2n1 [Triafluocyl, (1S,2S,3R,5S)-3-[7-[(1R,2S)-2-(3,4-difluorophenyl)cyclopropylamino]-5-(propylthio)-3H-[1,2,3]-triazolo[4,5-d]pyrimidin-3-yl]-5-(2-hydroxyethoxy)-1,2-cyclopentanediol]
effect on bacterial growth (turbidity and viable count) (S. aureus (ATCC 25904); 10 μg/ml): able to inhibit bacterial growth
effect on bacterial growth (turbidity and viable count) (S. aureus (ATCC 25904); 20 μg/ml): potent bactericidal effect
